Experimental data: PMC12598616, “Design and optimization of caspase-1-responsive fluorescent probes for pyroptosis imaging and anti-pyroptosis drug screening” (Chemical Science, 2025)

Legend:
[1] = system: Cas-1 in primary chondrocytes; experiment: Intracellular imaging in primary chondrocytes; assay type: cell-based; settings: H2O2 2 mM 30, 60, 90 min; FPy1 5 μM 1 h
Description: (§1) The decline in chondrocyte function plays a crucial role in the pathogenesis of OA. Inflammasome-mediated chondrocyte pyroptosis has been closely associated with matrix degradation and cartilage degeneration in OA.[38] To model OA in vitro, primary chondrocytes were stimulated with H2O2 (2 mM) for different durations, followed by staining with FPy1 (5 μM) and fluorescence imaging to monitor the progression of pyroptosis under oxidative stress. […] To better mimic the in vivo pathological features of OA, primary chondrocytes were also cultured as three-dimensional spheroids and stimulated with H2O2. […] Furthermore, we evaluated the capability of FPy1 to monitor pyroptosis progression at different stages of OA in a mouse model. […] The pathological manifestations in the corresponding tissues became more pronounced with longer modeling periods, consistent with the fluorescence imaging results obtained using FPy1. […]
Chondrocytes were isolated from articular cartilage and resuspended in 1mL DMEM/F12 medium containing 10 μM ITS-A. A total of […] were counted and transferred into centrifuge tubes. […]
The chondrocytes or 3D cell spheroids were seeded in dishes and cultured overnight. […] Fluorescence imaging was then performed with an excitation of 514 nm, and signals were […]

[2] = system: osteoarthritis mouse model (ACL transection); experiment: In vivo fluorescence imaging of osteoarthritis; set-up: species or system C57BL/6J mouse; settings: injected into joint cavity; 0, 7, 14, 21 days post-surgery
Description: as §1
Harvested rat discs were fixed in 4 % buffered paraformaldehyde for 24 hours, decalcified in 10 % ethylenediaminetetraacetic acid (EDTA, Solarbio, E8030) solution for 1 month, embedded in paraffin, and sectioned at a thickness of 5 μm. […] Stained sections were evaluated by three independent raters, blinded to the research protocol, and measurements were averaged for statistical analysis. […]
In vivo fluorescence imaging of intervertebral disc degeneration […]

Question: How did the “intracellular fluorescence intensity in primary chondrocytes” value [1] turn out when “–FLTDG– [FPy1, RhoB donor, hNR quencher]” was run?
Answer: The value was “increased with prolonged H2O2 stimulation”.

Question: And the “in vivo fluorescence signals in knee joints” value [2]?
Answer: The value was “gradually increasing as the modeling duration was extended”.
